Laboratory results taken from patent US20230028658A1, “EXPANDED DOSAGE REGIMENS FOR INTEGRIN INHIBITORS” (Pliant Therapeutics, Inc., priority 2021, published 2023).

Test system: lung Col1a1 expression
Experiment: Precision cut lung slices of mice under chronic bleomycin exposure, Col1a1 expression (Example B9)
Type: cell-based, Mice (C57BL/6)
Conditions: chronic bleomycin PCLS, 7 days culture, normalized to DMSO; FIG. 5B
Method: Mice (C57BL/6) were administered 3 U/kg of bleomycin (Teva Pharmaceuticals; North Wales, Pa.) on Day 0 and 1 U/kg of bleomycin on days 14, 28, 42 and 56 via oropharyngeal aspiration while under anesthesia. At day 70, 14 days after the final bleomycin insult, precision cut lung slices were obtained. Following euthanization, 2% low gelling temp agarose was injected into the mouse lungs via the trachea. […] The lobes were then subjected to precision slicing to obtain samples for culture using a microtome (Compresstome VF-300-0Z, Precisionary; Greenville, N.C.). Individual slices were distributed in a multiwell culture plate and cultured for 7 days under control (DMSO) and test compound conditions. The viability of the slices over the course of culturing was confirmed by WST-1 assay of mitochondrial activity.
During the culture period, slices in the control group were treated with DMSO and slices in the test group were treated with a DMSO solution of one of: the selective antibody αvβ6 inhibitor 3G9; the αvβ1-selective small molecule inhibitor; a combination of the selective antibody αvβ6 inhibitor 3G9 and the αvβ1-selective small molecule inhibitor; compound 5; and the small molecule ALK5 inhibitor. The selective αvβ1 and αvβ6 integrin inhibitors were analyzed at ≥their respective IC90 concentrations for inhibition of TGF-beta activation. […]

## COCCN(CCCCc1ccc2c(n1)NCCC2)CC[C@H](Nc1ncnc2ccccc12)C(=O)O [Compound 5, (S)-4-((2-methoxyethyl) (4-(5,6,7,8-tetrahydro-1,8-naphthyridin-2-yl)butyl)amino)-2-(quinazolin-4-ylamino) butanoic acid]
  lung Col1a1 expression: decreased lung Col1a1 expression substantially
